The data set has as its target brain NOP receptors (hypothalamus vs striatum) (Rattus norvegicus, UniProt P35370). Description: Ligand brain uptake in rat, ex vivo LC-MS/MS. The note with it: 3 μg/kg i.v., non-anesthetized, 10 min stated for (S)-10a.

SMILES strings stand for the structures.

brain NOP receptors (hypothalamus vs striatum), sequence (P35370 whole entry): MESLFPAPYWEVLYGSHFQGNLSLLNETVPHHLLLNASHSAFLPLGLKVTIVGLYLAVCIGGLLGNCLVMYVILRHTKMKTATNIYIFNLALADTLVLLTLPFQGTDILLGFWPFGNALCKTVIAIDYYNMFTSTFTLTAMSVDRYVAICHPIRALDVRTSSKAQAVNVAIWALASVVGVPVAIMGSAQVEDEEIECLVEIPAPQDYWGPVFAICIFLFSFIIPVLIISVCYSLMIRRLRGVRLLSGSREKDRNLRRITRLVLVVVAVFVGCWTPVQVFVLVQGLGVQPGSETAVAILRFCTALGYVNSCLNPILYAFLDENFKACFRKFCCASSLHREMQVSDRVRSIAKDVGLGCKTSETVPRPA

Compound `CC(C)N(C)C(=O)[C@@H](Cc1ccccc1F)CN1CCC2(CC1)OCCc1cc(F)sc12` [(S)-10a, (2S)-2-[(2-Fluorophenyl)methyl]-3-(2-fluorospiro[4,5-dihydrothieno[2,3-c]pyran-7,4'-piperidine]-1'-yl)-N-isopropyl-N-methyl-propanamide] returned a brain uptake of 453 % SUV. Regarding `CNC(=O)[C@@H](Cc1ccccc1F)CN1CCC2(CC1)OCCc1cc(F)sc12` [(S)-10c, (2S)-2-[(2-Fluorophenyl)methyl]-3-(2-fluorospiro[4,5-dihydrothieno[2,3-c]pyran-7,4'-piperidine]-1'-yl)-N-methyl-propanamide], the brain uptake is listed as ~ 280 % SUV. For `CNC(=O)[C@@H](Cc1ccccc1Cl)CN1CCC2(CC1)OCCc1cc(F)sc12` [(S)-10b, (2S)-2-[(2-Chlorophenyl)methyl]-3-(2-fluorospiro[4,5-dihydrothieno[2,3-c]pyran-7,4'-piperidine]-1'-yl)-N-methyl-propanamide], the brain uptake is ~ 280 % SUV.
